Tests used:
[1] = MTT assay in BJ1 cells; assay type: cell-based; conditions: human, hTERT-BJ1-PTERT(3.4)-SEAP cells, BJ1, read-out: MTT (Inhibition μM ± SD); for viability at 48 h, 1 µM: compound concentration 1 μM; for viability at 48 h, 10 µM: compound concentration 10 μM; for viability at 48 h, 100 µM: compound concentration 100 μM
In short: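 After 48 h drug treatment, cells in DMEM/Medium 199 (4:1) with 10% FBS were given MTT (5 mg/ml stock) in serum-free medium for 4 h at 37 °C, lysed overnight in 20% SDS/50% DMF, and absorbance read at 570 nm.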

[2] = tested on: hTERT expression; assay: SEAP assay, H1299/PhTERT-driven SEAP system; assay type: cell-based, human; conditions: Homo sapiens, NCI-H1299, read-out: SEAP (Inhibition μM ± SD)
From the text: The condition of the cells for selecting the telomerase inhibitor must be the cancer cells with telomerase activity. H1299 is a non-small cell lung cancer cell line with telomerase activity. The hTERT communication gene linked behind PhTERT which is located at the fifth chromosome of H1299 cell can be expressed; however, this expression is hard to detect. Therefore, the plasmid having the SEAP communication gene linked behind PhTERT was transfected into H1299 cells. Under the identical condition, after PhTERT was activated, the SEAP communication gene linked behind the plasmid was also activated. This gene could be detected by this analytic method while expressing.
If additionally added reagent can inhibit PhTERT, the linked SEAP communication gene will not be expressed, and the hTERT communication gene linked behind PhTERT at the fifth chromosome will not be expressed. […]
The cellular medium after the cellular incubation was transferred into the eppondorf tube, and the activity of endogeneous alkaline phosphatase was inactivated at 65° C. for 10 minutes. After centrification, the mixture was obtained by mixing 50 μl of the supernatant with the equal volume of the SEAP buffer. The mixture and the substrate (120 mM of p-nitrophenylphosphate) were preheated at 37° C. for 10 minutes respectively, and the mixture and the substrate were mixed at a ratio of 1:10 and reacted at 37° C. The absorbance of visible light at 405 nm was determined at the appropriate time intervals, and the enzymatic activity of SEAP was represented by the speed of the increasing absorbance at 405 nm.
The selection of telomerase inhibitors of the anthraquinone compounds provided in the present invention was performed by the H1299/PhTERT-driven SEAP system. SEAP is the communication gene in this drug selection model. The SEAP inhibition was shown as follows. The quantitative cellular medium obtained after the 24-hour drug-treatment and the identical inactivation was reacted with the quantitative SEAP substrate, and the absorbance at 405 nm was detected for 5 time intervals. Subsequently, the linear slope of absorbance to the measuring time was calculated, and the variance of absorbance at 405 nm per minute was represented and compared with the SEAP-producing result of drug-untreated H1299 cells. In addition, the influence of the cell-treated drug solution to the cellular proliferation and the drug toxicity to the cells were considered, and the cellular growth was evaluated by the MTT assay. The drug-treated cells were analyzed by the SEAP assay and the data analysis of MTT assay at the same time. Both results were compared so as to delete the influence of cell number or the activity to SEAP, and the dose-dependent phenomenon could be anticipated in the range of drug concentration designed by the laboratory.
In the preliminary selection, the highest concentration was 1000 μM, and 10-fold serial dilutions were done. Therefore, the final concentrations for treating cells were 1 μM, 10 μM and 100 μM, and the drug concentrations were repeated for 5 times. Since the chemically-synthetic drugs have colors thereon, the SEAP value of drug-treatment without cells was also determined to be the background value which was deducted while treating with the drugs. The candidate drug for inhibiting telomerase on the hTERT gene expression level was evaluated and anticipated.

[3] = tested on: telomerase; assay: Telomeric repeat amplification protocol (TRAP); assay type: biochemical; conditions: compounds at 100, 10 and 1 μM; gel electrophoresis

| Structure (SMILES) | viability at 48 h, 1 µM [1] [%] | viability at 48 h, 10 µM [1] [%] | viability at 48 h, 100 µM [1] [%] | activity at 1 µM [2] [%] | activity at 10 µM [2] [%] | activity at 100 µM [2] [%] | melting point [°C] | telomerase inhibition effect in TRAP assay [3] |
| --- | --- | --- | --- | --- | --- | --- | --- | --- |
| CC(=O)Nc1ccc2c(c1)C(=O)c1cc(NC(C)=O)ccc1C2=O [Compound 26, 2,7-Bis(acetamido)anthraquinone] | 106 ± 1 | 91 ± 2 | 91 ± 2 | 97 ± 10 | 87 ± 14 | 74 ± 18 | 340 | telomerase inhibition effect |
| CCNCC(=O)Nc1ccc2c(c1)C(=O)c1cc(NC(=O)CNCC)ccc1C2=O [Compound 10, 2,7-Bis[2-(ethylamino)acetamido]anthraquinone] | 72 ± 2 | 56 ± 2 | 37 ± 1 | 60 ± 10 | 35 ± 5 | 34 ± 3 | 145 | telomerase inhibition effect |

Reference: US20090253709A1 (NATIONAL DEFENSE MEDICAL CENTER, priority 2008, published 2009)
